Data as given in US20260274857A1, “CRYSTAL OF DIHYDROPYRIDINONE DERIVATIVE OR SOLVATE THEREOF” (Shionogi & Co., Ltd., priority 2022, published 2026).

Columns and labels:
Assay type in all cases: physicochemical
[1] = Powder solubility test (JP-1, JP-2, TCA/JP2); conditions: 37° C., 1 hour; for JP1 solubility: JP-1 solution; for TCA/JP2 solubility: JP-2 solution added with taurocholic acid; for JP2 solubility: JP-2 solution
Procedure: The solubility of the crystal of the present invention was evaluated with respect to the solubility when JP-1 solution, JP-2 solution, and JP-2 solution added with taurocholic acid (TCA/JP2) were used as a measurement medium. Evaluation was performed at a dissolved concentration (μg/mL) by an HPLC method.
About 1 mg of the crystal of the present invention was weighed in a 4 mL glass container, and 2 mL of JP-2 solution (1000 mL of water was added to 1.70 g of potassium dihydrogen phosphate and 1.775 g of anhydrous disodium hydrogen phosphate) was added to each container. The mixture was sealed with a polyethylene stopper with Teflon and silicone packing, shaken at 37° C. for 1 hour, and then filtered, and 400 μL of methanol was added to 800 μL of the filtrate to perform 1.5 fold dilution. Whether there were bubbles and precipitates was confirmed, and the compound of the crystal of the present invention was quantified using HPLC by an absolute calibration curve method to calculate the solubility.

[2] = Moisture adsorption/desorption isotherm measurement (DVS); conditions: 25° C.; for difference in water content between 0% RH and 95% RH: DVS
Text: The moisture adsorption/desorption isotherm measurement is a measurement method for measuring the adsorption and desorption behavior of moisture by measuring a weight change in a solid as a measurement target under each relative humidity condition.
As a basic measurement method, based on the dry weight at 0% RH (relative humidity 0%), the relative humidity is increased every 5% or 10%, and after the weight is stabilized at each relative humidity, the amount of adsorbed water can be determined from the weight increase from the reference value. Similarly, the desorption amount of water can be measured by decreasing the relative humidity every 5% or 10% from 100% RH or 95% RH.
By plotting the value of the weight change at each relative humidity, an adsorption/desorption isotherm can be obtained.
Sorption and desorption of adhesion water and crystal water are affected by particle size, crystallinity, crystal habit, and the like, so that the measurement results may slightly change.
The crystals and amorphous substances obtained in each Example were weighed in an aluminum pan, and allowed to stand at 25° C. and a relative humidity of 0%. The measurement was started after the compound was sufficiently dried and the weight was stabilized, and the weight when the relative humidity changed from 0% to 95% by 5% was recorded. Next, the weight when the relative humidity changed from 95% to 0% by 5% was recorded.
Device: DVS Advantage manufactured by Surface Measurement Systems

[3] = Test Example 2: solid stability, 40° C. 89% RH 3 months, amount of analogous substance
Procedure: The crystal and amorphous substance of the compound represented by Formula (I) obtained in Example 1 were stored (40° C., 89% RH 3M) in a hermetically sealed container at 40° C. and a relative humidity of 89% for 3 months, and subjected to a solid stability test to evaluate the amount of an analogous substance.
The crystal or amorphous substance of the compound represented by Formula (I) obtained in Example 1 was dissolved in an acetonitrile aqueous solution (acetonitrile:water=1:1) to prepare a sample solution to be exactly 500 μg/mL.
The purity and the amount of the analogous substance were measured by an area percentage method under the HPLC conditions 1 described in Test Example 1.
The results of the crystal and amorphous substance of the compound represented by Formula (I) obtained in Example 1 are described in the following table. Impurities detected at a retention time (RT, retention time) of 17.527 minutes indicate an increase amount with respect to a standard product.

[4] = Solid stability test: storage stability (amount of analogous substance by HPLC, appearance); conditions: temperature, temperature and humidity conditions, light irradiation; analogous substance by HPLC and appearance
Procedure: For the solid stability of the crystal of the compound represented by Formula (I) obtained in Example 1 and the crystal of the compound represented by Formula (II) obtained in Example 16, the chemical stability under temperature, temperature and humidity conditions, and light irradiation was evaluated. The proportion (%) of the analogous substance produced by an HPLC method and the change in appearance were evaluated.
About 10 mg of the crystal was accurately weighed in a 2 mL glass container with a polyethylene stopper. After the glass container was closed, the glass container was stored at 40° C. or 60° C. for 2 weeks, 1 month, 2 months, 3 months, or 6 months. A sample stored at 40° C. is referred to as a 40° C. hermetically sealed product, and a sample stored at 60° C. is referred to as a 60° C. hermetically sealed product. In a state where the glass container was opened, the glass container was stored at a relative humidity of 75±5% at 40° C. or a relative humidity of 89±5% for 2 weeks, 1 month, 2 months, 3 months or 6 months, or in the presence of silica gel at 40° C. for 1 month, 2 months, 3 months or 6 months. A sample stored at 40° C. and a relative humidity of 75±5% or 89±5% is referred to as a 40° C. and 75% relative humidity (also referred to as 40±2° C./75±5% RH) or 40° C. and 89% relative humidity (also referred to as 40±2° C./89% RH) stored product, and a sample stored in the presence of silica gel at 40° C. is referred to as a 40° C. stored product. The −40° C. hermetically sealed product was used as a standard product.
The amount of the analogous substance was measured by an area percentage method by the HPLC method under the following conditions.
HPLC Conditions 1 were used for the crystal and amorphous substance of the compound represented by Formula (I) obtained in Example 1, and HPLC conditions 2 were used for the crystal of the compound represented by Formula (II) obtained in Example 16.
• Detector: ultraviolet absorptiometer (measurement wavelength: 260 nm) • Column: YMC-Triart C18 ExRS, S-1.9 μm, 3.0×100 mm • Column temperature: constant temperature at near 40° C. • Mobile phase A: 0.1% formic acid aqueous solution • Mobile phase B: acetonitrile • Flow rate: about 0.6 mL/min • Injection amount: 3 μL • Sample cooler temperature: about 6° C. • Feed of mobile phase: The mixing ratio of mobile phase A and mobile phase B was changed as shown in Table 18 to control concentration gradient.
Column: Cortecs (2.7 μm 3.0×100 mm)
Column temperature: 40° C.
UV detection wavelength: 254 nm

In the case of `Cc1ccc(-n2nc3c(c2NC(=O)CS(C)(=O)=O)C(=O)NC2(CCOc4cc(F)cc(F)c42)C3)nc1` (stereo not drawn) [Compound crystal of Formula (I)], the JP1 solubility [1] was 59.4 µg/mL, the TCA/JP2 solubility [1] was 143.1 µg/mL and the JP2 solubility [1] was 74.1 µg/mL.
In the case of `CS(=O)(=O)CC(=O)Nc1c2c(nn1CCCOC(F)(F)F)CC1(CCOc3cc(OCC(F)(F)F)ccc31)NC2=O` (stereo not drawn) [Compound crystal of Formula (II)], the JP1 solubility [1] was 33.6 µg/mL, the TCA/JP2 solubility [1] was 73.6 µg/mL and the JP2 solubility [1] was 37.5 µg/mL.
For `Cc1ccc(-n2nc3c(c2NC(=O)CS(C)(=O)=O)C(=O)N[C@@]2(CCOc4cc(F)cc(F)c42)C3)nc1` [amorphous substance of the compound represented by Formula (], the “difference in water content between 0% RH and 95% RH” value [2] was “about 7.0%” and the “impurities detected at a retention time of 17.527 minutes, increase with respect to standard product (in words)” value [3] was “greatly increased”.
For `Cc1ccc(-n2nc3c(c2NC(=O)CS(C)(=O)=O)C(=O)N[C@@]2(CCOc4cc(F)cc(F)c42)C3)nc1` [crystal of the compound represented by Formula (I) obtained ], the “difference in water content between 0% RH and 95% RH” value [2] was “about 1.4%”, the Moisture adsorption amount ([2]; relative humidity 0.0%) was 0.000% and the Moisture desorption amount ([2]; relative humidity 0.0%) was 0.063%. It also gave a Moisture adsorption amount ([2]; relative humidity 5.0%) of 0.064%, a Moisture desorption amount ([2]; relative humidity 5.0%) of 0.153% and a Moisture adsorption amount ([2]; relative humidity 10.0%) of 0.115%. The Moisture desorption amount ([2]; relative humidity 10.0%) was 0.230%, the Moisture adsorption amount ([2]; relative humidity 15.0%) was 0.174% and the Moisture desorption amount ([2]; relative humidity 15.0%) was 0.316%. For the same compound, the Moisture adsorption amount ([2]; relative humidity 20.0%) was 0.234%, the Moisture desorption amount ([2]; relative humidity 20.0%) was 0.395% and the Moisture adsorption amount ([2]; relative humidity 25.0%) was 0.321%. The Moisture desorption amount ([2]; relative humidity 25.0%) was 0.509%, the Moisture adsorption amount ([2]; relative humidity 30.0%) was 0.449% and the Moisture desorption amount ([2]; relative humidity 30.0%) was 0.638%. It also gave a Moisture adsorption amount ([2]; relative humidity 35.0%) of 0.549%, a Moisture desorption amount ([2]; relative humidity 35.0%) of 0.740% and a Moisture adsorption amount ([2]; relative humidity 40.0%) of 0.639%. For the same compound, the Moisture desorption amount ([2]; relative humidity 40.0%) was 0.830%, the Moisture adsorption amount ([2]; relative humidity 45.0%) was 0.719% and the Moisture desorption amount ([2]; relative humidity 45.0%) was 0.917%. For the same compound, the Moisture adsorption amount ([2]; relative humidity 50.0%) was 0.798%, the Moisture desorption amount ([2]; relative humidity 50.0%) was 0.989% and the Moisture adsorption amount ([2]; relative humidity 55.0%) was 0.867%. The Moisture desorption amount ([2]; relative humidity 55.0%) was 1.052%, the Moisture adsorption amount ([2]; relative humidity 60.0%) was 0.925% and the Moisture desorption amount ([2]; relative humidity 60.0%) was 1.113%. The Moisture adsorption amount ([2]; relative humidity 65.0%) was 1.003%, the Moisture desorption amount ([2]; relative humidity 65.0%) was 1.179% and the Moisture adsorption amount ([2]; relative humidity 70.0%) was 1.070%. For the same compound, the Moisture desorption amount ([2]; relative humidity 70.0%) was 1.237%, the Moisture adsorption amount ([2]; relative humidity 75.0%) was 1.150% and the Moisture desorption amount ([2]; relative humidity 75.0%) was 1.288%. The Moisture adsorption amount ([2]; relative humidity 80.0%) was 1.196%, the Moisture desorption amount ([2]; relative humidity 80.0%) was 1.314% and the Moisture adsorption amount ([2]; relative humidity 85.0%) was 1.266%. It also gave a Moisture desorption amount ([2]; relative humidity 85.0%) of 1.369%, a Moisture adsorption amount ([2]; relative humidity 90.0%) of 1.350% and a Moisture desorption amount ([2]; relative humidity 90.0%) of 1.407%. The Moisture adsorption amount ([2]; relative humidity 95.0%) was 1.426%, the Moisture desorption amount ([2]; relative humidity 95.0%) was 1.426% and the “solid stability (in words)” value [4] was “excellent in solid stability under any conditions”. For the same compound, the “impurities detected at a retention time of 17.527 minutes, increase with respect to standard product (in words)” value [3] was “increase in impurities could be greatly suppressed”.
